Consider five compounds from patent US20240132498A1, “CRYSTALLINE FORMS OF 5-(3,4-DIFLUOROBENZYL)-8-((1R,4R)-4-METHYLCYCLOHEXYL)-6,9-DIOXO-2,5,8-TRIAZASPIRO[3.5]NONANE-2-CARBALDEHYDE” (Cytokinetics, Incorporated, priority 2022, published 2024).

The target in series [1] is T1, bovine cardiac myofibrils (Bos taurus, UniProt Q9BE39).
T1 construct: full-length cardiac myosin in the context of the native sarcomere; from tissue; host or cells: bovine cardiac left ventricular tissue, detergent-skinned myofibrils
T1 sequence (Q9BE39 whole entry): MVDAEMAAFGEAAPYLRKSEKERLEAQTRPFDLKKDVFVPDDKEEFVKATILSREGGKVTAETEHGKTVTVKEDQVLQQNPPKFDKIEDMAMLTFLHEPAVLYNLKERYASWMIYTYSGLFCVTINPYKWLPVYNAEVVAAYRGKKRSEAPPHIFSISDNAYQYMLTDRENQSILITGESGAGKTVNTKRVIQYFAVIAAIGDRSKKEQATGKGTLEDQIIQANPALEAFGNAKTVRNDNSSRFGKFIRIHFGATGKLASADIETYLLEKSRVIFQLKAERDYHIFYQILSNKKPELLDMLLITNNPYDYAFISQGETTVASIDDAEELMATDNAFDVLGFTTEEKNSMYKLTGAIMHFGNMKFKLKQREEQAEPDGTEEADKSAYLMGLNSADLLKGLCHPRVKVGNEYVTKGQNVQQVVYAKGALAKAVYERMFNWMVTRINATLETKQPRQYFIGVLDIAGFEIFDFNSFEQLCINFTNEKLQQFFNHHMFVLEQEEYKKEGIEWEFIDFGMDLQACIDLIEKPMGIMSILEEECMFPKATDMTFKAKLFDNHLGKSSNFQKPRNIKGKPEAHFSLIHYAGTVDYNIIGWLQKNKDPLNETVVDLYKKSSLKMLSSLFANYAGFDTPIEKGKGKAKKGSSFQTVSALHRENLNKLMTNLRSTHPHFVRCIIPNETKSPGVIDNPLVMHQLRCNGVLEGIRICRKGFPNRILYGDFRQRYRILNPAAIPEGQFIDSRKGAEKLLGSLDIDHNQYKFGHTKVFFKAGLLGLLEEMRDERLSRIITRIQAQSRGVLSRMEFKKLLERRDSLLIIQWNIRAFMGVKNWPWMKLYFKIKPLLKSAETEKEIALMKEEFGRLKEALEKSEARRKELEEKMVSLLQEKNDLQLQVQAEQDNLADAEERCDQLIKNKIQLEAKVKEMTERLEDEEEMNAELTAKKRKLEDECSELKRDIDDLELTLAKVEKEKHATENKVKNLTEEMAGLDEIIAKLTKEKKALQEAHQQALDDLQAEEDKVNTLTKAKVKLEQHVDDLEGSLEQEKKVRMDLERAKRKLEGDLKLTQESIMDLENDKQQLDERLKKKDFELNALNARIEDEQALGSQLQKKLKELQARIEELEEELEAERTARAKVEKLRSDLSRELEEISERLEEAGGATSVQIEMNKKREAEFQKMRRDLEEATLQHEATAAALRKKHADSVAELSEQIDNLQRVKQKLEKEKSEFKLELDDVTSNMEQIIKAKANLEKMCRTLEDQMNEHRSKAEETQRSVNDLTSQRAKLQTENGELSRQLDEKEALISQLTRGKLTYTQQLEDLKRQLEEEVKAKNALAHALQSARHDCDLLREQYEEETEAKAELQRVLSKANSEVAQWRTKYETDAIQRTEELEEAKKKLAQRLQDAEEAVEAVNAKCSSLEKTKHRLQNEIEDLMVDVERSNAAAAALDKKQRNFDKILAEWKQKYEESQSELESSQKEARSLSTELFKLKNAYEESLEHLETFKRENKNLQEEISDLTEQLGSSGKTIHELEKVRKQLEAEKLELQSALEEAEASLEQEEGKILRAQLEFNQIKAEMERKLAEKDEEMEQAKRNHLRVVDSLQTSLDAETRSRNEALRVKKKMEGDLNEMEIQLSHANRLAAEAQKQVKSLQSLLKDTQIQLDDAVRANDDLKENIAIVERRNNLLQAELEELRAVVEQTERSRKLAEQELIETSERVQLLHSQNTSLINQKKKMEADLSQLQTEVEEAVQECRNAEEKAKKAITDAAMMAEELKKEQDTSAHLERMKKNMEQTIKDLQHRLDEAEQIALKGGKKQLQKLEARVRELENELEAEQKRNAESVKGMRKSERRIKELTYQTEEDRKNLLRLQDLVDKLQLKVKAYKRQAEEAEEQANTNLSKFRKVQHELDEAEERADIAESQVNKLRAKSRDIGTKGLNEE
T1 sequence (P85100 whole entry partner): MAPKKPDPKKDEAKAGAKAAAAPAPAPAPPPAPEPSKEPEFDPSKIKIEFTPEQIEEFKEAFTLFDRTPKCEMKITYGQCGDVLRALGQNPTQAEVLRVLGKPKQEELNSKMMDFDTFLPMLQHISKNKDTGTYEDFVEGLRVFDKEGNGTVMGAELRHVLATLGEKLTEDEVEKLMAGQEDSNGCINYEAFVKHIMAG
T1 sequence (Q3SZE5 whole entry partner): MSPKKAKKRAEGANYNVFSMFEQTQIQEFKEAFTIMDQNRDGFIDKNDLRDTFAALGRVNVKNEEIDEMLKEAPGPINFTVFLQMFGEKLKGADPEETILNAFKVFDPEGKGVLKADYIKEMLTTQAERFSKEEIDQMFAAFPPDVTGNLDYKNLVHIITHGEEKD
Description: Skinned bovine cardiac myofibril ATPase assay (PK/LDH-coupled). Conditions: bovine cardiac myofibril ATPase activity; Ca2+ for 50% or 75% activation. The format is biochemical. As for the experimental part:
To evaluate the effect of the compound 5-(3,4-difluorobenzyl)-8-((1r,4r)-4-methylcyclohexyl)-6,9-dioxo-2,5,8-triazaspiro[3.5]nonane-2-carbaldehyde on the ATPase activity of full-length cardiac myosin in the context of the native sarcomere, skinned myofibril assays were performed. Bovine cardiac myofibrils were obtained by homogenizing bovine cardiac left ventricular tissue in the presence of a detergent such as triton X-100. Such treatment removes membranes and a majority of the soluble cytoplasmic proteins but leaves intact the cardiac sarcomeric acto-myosin apparatus. Myofibril preparations retain the ability to hydrolyze ATP in a Ca^2+ regulated manner. ATPase activities of such myofibril preparations in the presence and absence of the compound 5-(3,4-difluorobenzyl)-8-((1r,4r)-4-methylcyclohexyl)-6,9-dioxo-2,5,8-triazaspiro[3.5]nonane-2-carbaldehyde was assayed at Ca^2+ concentrations activating to a defined fraction of the maximal rate (i.e., […], 75%). The compound 5-(3,4-difluorobenzyl)-8-((1r,4r)-4-methylcyclohexyl)-6,9-dioxo-2,5, 8-triazaspiro [3.5]nonane-2-carbaldehyde was assessed for its ability to inhibit the steady-state ATPase activity of bovine cardiac myofibrils using pyruvate kinase and lactate dehydrogenase (PK/LDH)-coupled enzyme system. This assay regenerates myosin-produced ADP into ATP by oxidizing NADH, producing an absorbance change at 340 nm. Prior to testing this compound, the bovine cardiac myofibrils were assessed for their calcium responsiveness and the calcium concentration that achieves either a 50% (pCa50) or 75% (pCa75) activation of the myofibril system was chosen as the final condition for assessing the inhibitory activity of this compound. All enzymatic activity was measured in a buffered solution containing 12 mM PIPES (piperazine-N,N′-bis(2-ethanesulfonic acid), 2 mM magnesium chloride at pH 6.8 (PM 12 buffer). Final assay conditions were 1 mg/mL of bovine cardiac myofibrils, 4 U/mL pyruvate kinase, 6 U/mL lactate dehydrogenase, 50 μM ATP, 0.1 mg/mL BSA (bovine serum albumin), 10 ppm antifoam, 1 mM DTT, 0.5 mM NADH, 1.5 mM PEP, 0.6 mM EGTA, and an amount of CaCl2) sufficient to achieve either 50% or 75% activation of the myofibril ATPase activity. The compound tested was prepared in accordance with the synthetic procedures described herein.

The target in series [2] is T2, CYP3A4 (Homo sapiens, UniProt P08684).
T2 construct: from tissue; host or cells: pooled human liver microsomes
T2 sequence (P08684 whole entry): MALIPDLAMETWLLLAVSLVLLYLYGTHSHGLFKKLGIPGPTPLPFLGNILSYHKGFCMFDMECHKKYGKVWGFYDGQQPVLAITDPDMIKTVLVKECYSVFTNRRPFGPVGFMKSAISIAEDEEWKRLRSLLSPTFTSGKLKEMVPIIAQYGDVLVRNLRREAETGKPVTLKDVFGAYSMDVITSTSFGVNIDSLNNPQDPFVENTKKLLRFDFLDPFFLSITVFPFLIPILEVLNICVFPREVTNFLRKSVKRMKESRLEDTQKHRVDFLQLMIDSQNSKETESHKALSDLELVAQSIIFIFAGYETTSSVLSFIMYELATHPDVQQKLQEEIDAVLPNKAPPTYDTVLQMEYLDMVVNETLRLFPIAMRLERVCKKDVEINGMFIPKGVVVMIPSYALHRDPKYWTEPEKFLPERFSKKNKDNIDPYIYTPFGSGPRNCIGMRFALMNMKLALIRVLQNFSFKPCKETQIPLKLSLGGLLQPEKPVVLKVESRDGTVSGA
Description: Time-dependent inhibition of CYP450 enzymes in human liver microsomes: CYP3A4-T (testosterone probe). The format is in vitro ADME. Conditions: human, pooled human liver microsomes, CYP3A4-T (testosterone probe); for activity at 30 min, 25 µM / activity at 30 min, 50 µM: 30 minutes incubation, read-out: % Activity NADPH T30; for activity at 0 min, 25 µM / activity at 0 min, 50 µM: time zero, read-out: % Activity NADPH T0. The procedure:
(§1) An assessment of the time-dependent Inhibitory Potential of the test compounds against Principal Human Cytochrome P450 Isozymes using Human Liver Microsomes was also carried out using standard methods (Grimm et al, Drug Metab. Dispos., Jul; 37(7):1355-70. doi: 10.1124/dmd.109.026716, 2009). Pooled human microsomes and selective CYP probe substrates were used for in vitro assessment of test compounds at 25 and 50 μM as time-dependent inhibitors of […] human hepatic cytochrome P450 isozymes (CYP1A2, 2B6, 2C9, 2C19, 2D6, and 3A4). LC-MS/MS was used to quantify metabolite formation. The inhibition of each P450 enzyme in human liver microsomes was measured as the percentage decrease in the activity of marker metabolite formation as measured by LC-MS/MS compared to non-inhibited controls (=100% activity) at time zero and after 30 minutes incubation. The occurrence of any time dependent inhibition was then expressed as the fold change in enzyme activity at time zero relative to the activity after 30 minutes incubation. The time dependent inhibition for the compound 5-(3,4-difluorobenzyl)-8-((1 r,4r)-4-methylcyclohexyl)-6,9-dioxo-2,5, 8-triazaspiro [3.5]nonane-2-carbaldehyde (Compound 1) against CYP1A2, […], CYP2C8, CYP2C9, CYP2C19, CYP2D6, CYP3A4-M and CYP3A4-T is shown in Table B-12.
Background: Liver microsomes are vesicles of endoplasmic reticulum, rich in cytochrome P450 enzymes.

For a further series, the target named is T3, CYP3A4-T (Homo sapiens, UniProt P08684).
T3 construct: from tissue; host or cells: pooled human liver microsomes
T3 sequence (P08684 whole entry): as above
The description is as above. In kind it is in vitro ADME. Conditions: for (% Activity NADPH T0)/(% Activity NADPH T30): CYP3A4-T (testosterone probe); for fold change in enzyme activity (time dependent inhibition), 3A4: human liver microsomes, testosterone probe, time zero vs 30 minutes incubation, 25 and 50 μM. The procedure: as §1

The target in the next series is T4, CYP2C19 (Homo sapiens, UniProt P33261).
T4 construct: from tissue; host or cells: pooled human liver microsomes
T4 sequence (P33261 whole entry): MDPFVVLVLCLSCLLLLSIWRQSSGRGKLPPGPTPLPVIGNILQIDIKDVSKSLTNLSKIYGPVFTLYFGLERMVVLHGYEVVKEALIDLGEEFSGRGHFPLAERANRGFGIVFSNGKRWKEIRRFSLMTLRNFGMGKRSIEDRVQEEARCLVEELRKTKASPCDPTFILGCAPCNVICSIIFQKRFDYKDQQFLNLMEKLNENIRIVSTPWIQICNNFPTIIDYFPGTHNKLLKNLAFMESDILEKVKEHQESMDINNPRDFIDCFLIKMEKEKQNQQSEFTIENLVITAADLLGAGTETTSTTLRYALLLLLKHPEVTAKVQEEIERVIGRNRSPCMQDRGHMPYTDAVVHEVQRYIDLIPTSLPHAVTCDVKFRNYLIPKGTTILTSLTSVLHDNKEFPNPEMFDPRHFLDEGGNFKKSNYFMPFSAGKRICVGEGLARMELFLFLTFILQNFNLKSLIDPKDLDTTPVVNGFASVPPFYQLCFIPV
In words: Time-dependent inhibition of CYP450 enzymes in human liver microsomes: CYP2C19. The format is in vitro ADME. Conditions: for fold change in activity (time dependent inhibition), 2C19: human liver microsomes. As for the experimental part:
as §1

For series [3], the target named is T2, CYP3A4. Description: Time-dependent inhibition of CYP450 enzymes in human liver microsomes: CYP3A4-M (midazolam probe). In kind it is in vitro ADME. The settings on record: human, pooled human liver microsomes, CYP3A4-M (midazolam probe); for activity at 30 min, 25 µM / activity at 30 min, 50 µM: 30 minutes incubation, read-out: % Activity NADPH T30; for activity at 0 min, 25 µM / activity at 0 min, 50 µM: time zero, read-out: % Activity NADPH T0. The procedure:
as §1

A further series deals with T5, CYP3A4-M (Homo sapiens, UniProt P08684).
T5 construct: from tissue; host or cells: pooled human liver microsomes
T5 sequence (P08684 whole entry): as the sequence (P08684 whole entry) above
Described as above. The format is in vitro ADME. The settings on record: for (% Activity NADPH T0)/(% Activity NADPH T30): CYP3A4-M (midazolam probe); for fold change in enzyme activity (time dependent inhibition), 3A4: human liver microsomes, midazolam probe, time zero vs 30 minutes incubation, 25 and 50 μM. As for the experimental part:
as §1

In the case of `O=CN1CC2(C1)C(=O)N([C@H]1CC[C@H](C(F)F)CC1)CC(=O)N2Cc1ccc(C(F)(F)F)cc1` [Comparator E, 8-((1r,4r)-4-(difluoromethyl)cyclohexyl)-6,9-dioxo-5-(4-(trifluoromethyl)benzyl)-2,5,8-triazaspiro[3.5]nonane-2-carbaldehyde], the “CDMF IC15” value in series [1] amounted to 1300 nM.

On to `CC(=O)N1CC2(C1)C(=O)N(c1ccc(C#N)cc1F)CC(=O)N2Cc1ccc(C(F)(F)F)cc1` [Comparator D, 4-(2-acetyl-6,9-dioxo-5-(4-(trifluoromethyl)benzyl)-2,5,8-triazaspiro[3.5]nonan-8-yl)-3-fluorobenzonitrile], for which the “CDMF IC15” value in series [1] is 1100 nM.

Consider `C[C@H]1CC[C@H](N2CC(=O)N(Cc3ccc(F)c(F)c3)C3(CN(C=O)C3)C2=O)CC1` [Compound 1, 5-(3,4-difluorobenzyl)-8-((1r,4r)-4-methylcyclohexyl)-6,9-dioxo-2,5,8-triazaspiro[3.5]nonane-2-carbaldehyde], for which the activity at 30 min, 25 µM came out at 90% at CYP3A4 [2]; 86% at CYP2C19 (human, pooled human liver microsomes, CYP2C19, 25 μM, 30 minutes incubation, read-out: % Activity NADPH T30); 88% on CYP3A4 [3]. The activity at 0 min, 25 µM on CYP3A4 [2] is 80%; on CYP2C19 (human, pooled human liver microsomes, CYP2C19, 25 μM, time zero, read-out: % Activity NADPH T0) it was 117%; on CYP3A4 [3] it was 70%. Also, the activity at 30 min, 50 µM at CYP3A4 [2] stood at 98%; on CYP2C19 (human, pooled human liver microsomes, CYP2C19, 50 μM, 30 minutes incubation, read-out: % Activity NADPH T30) it was 75%; on CYP3A4 [3], 78%. Further, the activity at 0 min, 50 µM at CYP3A4 [2] amounted to 83%; at CYP2C19 (human, pooled human liver microsomes, CYP2C19, 50 μM, time zero, read-out: % Activity NADPH T0), 84%; at CYP3A4 [3], 57%. Also, the “(% Activity NADPH T0)/(% Activity NADPH T30)” value is given as 0.9 on CYP3A4-T (25 μM); 0.8 on CYP3A4-T (50 μM); 1.4 on CYP2C19 (CYP2C19, 25 μM); 1.1 at CYP2C19 (CYP2C19, 50 μM); 0.8 at CYP3A4-M (25 μM); 0.7 at CYP3A4-M (50 μM). The “fold change in enzyme activity (time dependent inhibition), 3A4” value at CYP3A4-T and at CYP3A4-M was not above 1.2 fold each time. The “fold change in activity (time dependent inhibition), 2C19” value is recorded as 1.4 fold at CYP2C19 (25 μM) and “no change in activity” at CYP2C19 (50 μM). Also, the “CDMF IC15” value in series [1] was determined as 1500 nM.

For the compound `O=C1[C@H](C2COC2)N(Cc2ccc(C(F)(F)F)cc2)C(=O)CN1c1ncc(Cl)cc1F` [Comparator C, (S)-1-(5-chloro-3-fluoropyridin-2-yl)-3-(oxetan-3-yl)-4-(4-(trifluoromethyl)benzyl)piperazine-2,5-dione, reference compound], the results for the activity at 30 min, 25 µM on CYP3A4 [2] and on CYP3A4 [3] were 23% and 48%, respectively. Moreover, the activity at 0 min, 25 µM on CYP3A4 [2] came to 41%; on CYP3A4 [3], 75%. Also, the activity at 30 min, 50 µM was 19% at CYP3A4 [2] and 33% at CYP3A4 [3]. The activity at 0 min, 50 µM was determined as 35% on CYP3A4 [2] and 57% on CYP3A4 [3]. Also, the “(% Activity NADPH T0)/(% Activity NADPH T30)” value on CYP3A4-T (25 μM) amounted to 1.8; on CYP3A4-T (50 μM), 1.8; on CYP3A4-M (25 μM), 1.6; on CYP3A4-M (50 μM) it was 1.7. The “fold change in enzyme activity (time dependent inhibition), 3A4” value on CYP3A4-T and on CYP3A4-M was more than 1.5 fold each time. For the same compound, the “CDMF IC15” value in series [1] stood at 1100 nM.

Turning to `O=CN1CC2(C1)C(=O)N(c1ccc(F)cc1F)CC(=O)N2Cc1ccc(Cl)cc1` [Comparator A, 5-(4-chlorobenzyl)-8-(2,4-difluorophenyl)-6,9-dioxo-2,5,8-triazaspiro[3.5]nonane-2-carbaldehyde], the “CDMF IC15” value in series [1] was 1800 nM.
